From PubChem BioAssay (NCI)
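GI50: concentration for 50% inhibition of growth. Definition used: TGI = concentration required for complete inhibition of growth.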

Assays:
Test in all cases: NCI tumour cell line growth inhibition, 384-well format
NCI/ADR-RES ovarian = test system: NCI/ADR-RES ovarian
ACHN renal = test system: ACHN renal
HCC-2998 colon = test system: HCC-2998 colon
M14 melanoma = test system: M14 melanoma
SNB-19 CNS = test system: SNB-19 CNS
A498 renal = test system: A498 renal
RPMI-8226 leukemia = test system: RPMI-8226 leukemia
TK-10 renal = test system: TK-10 renal
NCI-H226 lung = test system: NCI-H226 lung
NCI-H322M lung = test system: NCI-H322M lung
HCT-116 colon = test system: HCT-116 colon
LOX IMVI melanoma = test system: LOX IMVI melanoma
MDA-MB-435 melanoma = test system: MDA-MB-435 melanoma
SNB-75 CNS = test system: SNB-75 CNS
OVCAR-5 ovarian = test system: OVCAR-5 ovarian
786-0 renal = test system: 786-0 renal
SF-539 CNS = test system: SF-539 CNS
OVCAR-3 ovarian = test system: OVCAR-3 ovarian
HOP-92 NSCLC = test system: HOP-92 NSCLC
MDA-MB-468 breast = test system: MDA-MB-468 breast
SR leukemia = test system: SR leukemia
EKVX NSCLC = test system: EKVX NSCLC
HS 578T breast = test system: HS 578T breast
OVCAR-4 ovarian = test system: OVCAR-4 ovarian
UACC-257 melanoma = test system: UACC-257 melanoma
OVCAR-8 ovarian = test system: OVCAR-8 ovarian
MOLT-4 leukemia = test system: MOLT-4 leukemia
CAKI-1 renal = test system: CAKI-1 renal

Nc1cc(C(F)(F)F)c(-c2cc(N3CCOCC3)nc(N3CCOCC3)n2)cn1
GI50 (NCI/ADR-RES ovarian): 0.265 µM | TGI (NCI/ADR-RES ovarian): 1.67 µM | GI50 (ACHN renal): 0.246 µM | TGI (ACHN renal): 10 µM | GI50 (HCC-2998 colon): 1.08 µM | TGI (HCC-2998 colon): 3.37 µM | GI50 (M14 melanoma): 0.416 µM | TGI (M14 melanoma): 8.85 µM | GI50 (SNB-19 CNS): 2.03 µM | TGI (SNB-19 CNS): 7.76 µM | GI50 (A498 renal): 0.387 µM | TGI (A498 renal): 1.87 µM | GI50 (RPMI-8226 leukemia): 0.185 µM | TGI (RPMI-8226 leukemia): 0.385 µM | GI50 (TK-10 renal): 0.572 µM | TGI (TK-10 renal): 2.73 µM | GI50 (NCI-H226 lung): 0.574 µM | TGI (NCI-H226 lung): 4.13 µM | GI50 (NCI-H322M lung): 1.62 µM | TGI (NCI-H322M lung): 7.01 µM | GI50 (HCT-116 colon): 0.852 µM | TGI (HCT-116 colon): 7.53 µM | GI50 (LOX IMVI melanoma): 1.18 µM | TGI (LOX IMVI melanoma): 10.7 µM | GI50 (MDA-MB-435 melanoma): 0.223 µM | TGI (MDA-MB-435 melanoma): 0.449 µM | GI50 (SNB-75 CNS): 0.287 µM | TGI (SNB-75 CNS): 1.19 µM | GI50 (OVCAR-5 ovarian): 0.687 µM | TGI (OVCAR-5 ovarian): > 100 µM | GI50 (786-0 renal): 1.97 µM | TGI (786-0 renal): 7 µM | GI50 (SF-539 CNS): 1.21 µM | TGI (SF-539 CNS): 2.91 µM | GI50 (OVCAR-3 ovarian): 0.546 µM | TGI (OVCAR-3 ovarian): 2.46 µM | GI50 (HOP-92 NSCLC): 0.562 µM | TGI (HOP-92 NSCLC): 4 µM | GI50 (MDA-MB-468 breast): 0.23 µM | TGI (MDA-MB-468 breast): 0.618 µM | GI50 (SR leukemia): 0.0459 µM | TGI (SR leukemia): 0.16 µM | GI50 (EKVX NSCLC): 0.793 µM | TGI (EKVX NSCLC): 6.28 µM | GI50 (HS 578T breast): 0.443 µM | TGI (HS 578T breast): 1.75 µM | GI50 (OVCAR-4 ovarian): 1.26 µM | TGI (OVCAR-4 ovarian): 6.66 µM | GI50 (UACC-257 melanoma): 0.93 µM | TGI (UACC-257 melanoma): 7.27 µM | GI50 (OVCAR-8 ovarian): 0.46 µM | TGI (OVCAR-8 ovarian): 14 µM | GI50 (MOLT-4 leukemia): 0.333 µM | TGI (MOLT-4 leukemia): 1.33 µM | GI50 (CAKI-1 renal): 0.23 µM | TGI (CAKI-1 renal): 0.804 µM
